Tests used:
Test in all cases: combination Emax (second highest fraction inhibited in the dose matrix, 72 h); higher = more inhibition; extreme values may be limits of the assay
[1] = tested on: KARPAS-299 (T-Cell Non-Hodgkin's Lymphoma)
Summary of the method: (§1)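 Bliss excess equals the observed combination effect minus the expected value EA + EB − EA·EB, where EA and EB are the effects of each agent alone. Combination Emax is the second-highest inhibition within the matrix. Inhibition was scaled from CellTiter-Glo 2.0 luminescence, with 0 set by vehicle wells and 1 by blank wells, after 72 hours of two-drug dosing of cells plated in 1536-well plates.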

[2] = tested on: VA-ES-BJ (Other Solid Carcinomas)
Summary of the method: as §1

[3] = tested on: HSC-4 (Oral Cavity Carcinoma)
Summary of the method: as §1

[4] = tested on: Ca9-22 (Head and Neck Carcinoma)
Summary of the method: as §1

[5] = tested on: Caov-4 (Ovarian Carcinoma)
Summary of the method: as §1

[6] = tested on: RF-48 (B-Cell Non-Hodgkin's Lymphoma)
Summary of the method: as §1

PWR-1E (Non-Cancerous) = tested on: PWR-1E (Non-Cancerous)
Summary of the method: as §1

[7] = tested on: NCI-H1915 (Non-Small Cell Lung Carcinoma)
Summary of the method: as §1

[8] = tested on: HGC-27 (Gastric Carcinoma)
Summary of the method: as §1

[9] = tested on: PANC-04-03 (Pancreatic Carcinoma)
Summary of the method: as §1

[10] = tested on: MIA-PaCa-2 (Pancreatic Carcinoma)
Summary of the method: as §1

YH-13 (Glioblastoma) = tested on: YH-13 (Glioblastoma)
Summary of the method: as §1

[11] = tested on: HOP-62 (Lung Adenocarcinoma)
Summary of the method: as §1

[12] = tested on: NEC8 (Other Solid Carcinomas)
Summary of the method: as §1

ACHN (Kidney Carcinoma) = tested on: ACHN (Kidney Carcinoma)
Summary of the method: as §1

TGW (Neuroblastoma) = tested on: TGW (Neuroblastoma)
Summary of the method: as §1

[13] = tested on: NUGC-3 (Gastric Carcinoma)
Summary of the method: as §1

[14] = tested on: LU-65 (Non-Small Cell Lung Carcinoma)
Summary of the method: as §1

EW-24 (Ewing's Sarcoma) = tested on: EW-24 (Ewing's Sarcoma)
Summary of the method: as §1

[15] = tested on: KYSE-450 (Esophageal Squamous Cell Carcinoma)
Summary of the method: as §1

Structure (SMILES) | combination Emax [1] | combination Emax [2] | combination Emax [3] | combination Emax [4] | combination Emax [5] | combination Emax [6] | combination Emax (PWR-1E (Non-Cancerous)) | combination Emax [7] | combination Emax [8] | combination Emax [9] | combination Emax [10] | combination Emax (YH-13 (Glioblastoma)) | combination Emax [11] | combination Emax [12] | combination Emax (ACHN (Kidney Carcinoma)) | combination Emax (TGW (Neuroblastoma)) | combination Emax [13] | combination Emax [14] | combination Emax (EW-24 (Ewing's Sarcoma)) | combination Emax [15]
C=CCn1c(=O)c2cnc(Nc3ccc(N4CCN(C)CC4)cc3)nc2n1-c1cccc(C(C)(C)O)n1 [AZD1775] + O=C(c1cc(Cc2n[nH]c(=O)c3ccccc23)ccc1F)N1CCN(C(=O)C2CC2)CC1 [Olaparib] (first compound max 1 µM, partner max 10 µM) | 0.93 | 0.307 | 0.461 | 0.88 | 0.779 | 0.651 | 0.562 | 0.668 | 0.799 | 0.495 | 0.737 | 0.428 | 0.274 | 0.284 | 0.907 | 0.821 | 0.547 | 0.609 | 0.433 | 0.687
CCN(CCO)CCCOc1ccc2c(Nc3cc(CC(=O)Nc4cccc(F)c4)[nH]n3)ncnc2c1 [AZD2811] + C=CCn1c(=O)c2cnc(Nc3ccc(N4CCN(C)CC4)cc3)nc2n1-c1cccc(C(C)(C)O)n1 [AZD1775] (first compound max 1 µM, partner max 1 µM) | 0.911 | 0.356 | 0.367 | 0.771 | 0.821 | 0.522 | 0.87 | 0.522 | 0.896 | 0.445 | 0.727 | 0.423 | 0.161 | 0.329 | 0.999 | 0.761 | 0.539 | 0.56 | 0.279 | 0.61
CCN(CCO)CCCOc1ccc2c(Nc3cc(CC(=O)Nc4cccc(F)c4)[nH]n3)ncnc2c1 [AZD2811] + C[C@@H]1COCCN1C2=NC(=NC(=C2)C3(CC3)[S@](=N)(=O)C)C4=C5C=CNC5=NC=C4 [AZD6738] (first compound max 1 µM, 7x7, partner max 10 µM) | 0.936 | 0.696 | 0.677 | 0.903 | 0.784 | 0.462 | 0.908 | 0.325 | 0.802 | 0.545 | 0.644 | 0.54 | 0.436 | 0.649 | 0.905 | 0.706 | 0.697 | 0.668 | 0.567 | 0.63
CCN(CCO)CCCOc1ccc2c(Nc3cc(CC(=O)Nc4cccc(F)c4)[nH]n3)ncnc2c1 [AZD2811] + O=C(c1cc(Cc2n[nH]c(=O)c3ccccc23)ccc1F)N1CCN(C(=O)C2CC2)CC1 [Olaparib] (first compound max 1 µM, 7x7, partner max 10 µM) | 0.423 | 0.251 | 0.245 | 0.195 | 0.19 | 0.294 | 0.538 | 0.312 | 0.915 | 0.227 | 0.469 | 0.474 | 0.155 | 0.13 | 0.211 | 0.532 | 0.274 | 0.265 | 0.337 | 0.33
CN(CCO)CC[C@H](CSc1ccccc1)Nc1ccc(S(=O)(=O)NC(=O)c2ccc(N3CCC([C@@H](O)c4ccccc4-c4ccc(Cl)cc4)CC3)cc2)cc1S(=O)(=O)C(F)(F)F [AZD4320] + CN(C)CCCOc1ccc(-c2ccc3ncc4c(c3c2)n(C2CCOCC2)c(=O)n4C)cn1 [AZD0156] (first compound max 1 µM, 7x7, partner max 1 µM) | 0.13 | 0.164 | 0.245 | 0.0929 | 0.276 | 0.773 | 0.162 | 0.271 | 0.274 | 0.192 | 0.141 | 0.134 | 0.194 | 0.203 | 0.125 | 0.963 | 0.151 | 0.307 | 0.876 | 0.0751
COc1nnc2ccc(N3CCC(c4ccc(OCCN5CCN(C)C(=O)[C@H]5C)cc4)CC3)nn12 [AZD5153] + C=CCn1c(=O)c2cnc(Nc3ccc(N4CCN(C)CC4)cc3)nc2n1-c1cccc(C(C)(C)O)n1 [AZD1775] (first compound max 1 µM, partner max 1 µM) | 0.919 | 0.724 | 0.397 | 0.672 | 0.864 | 0.558 | 0.886 | 0.678 | 0.839 | 0.484 | 0.882 | 0.592 | 0.631 | 0.913 | 0.835 | 0.674 | 0.715 | 0.799 | 0.609 | 0.519
COc1nnc2ccc(N3CCC(c4ccc(OCCN5CCN(C)C(=O)[C@H]5C)cc4)CC3)nn12 [AZD5153] + CC1(C)CCC(CN2CCN(c3ccc(C(=O)NS(=O)(=O)c4ccc(NCC5CCOCC5)c([N+](=O)[O-])c4)c(Oc4cnc5[nH]ccc5c4)c3)CC2)=C(c2ccc(Cl)cc2)C1 [Venetoclax] (first compound max 1 µM, 7x7, partner max 1 µM) | 0.781 | 0.5 | 0.0567 | 0.66 | 0.543 | 0.53 | 0.61 | 0.432 | 0.777 | 0.445 | 0.878 | 0.656 | 0.557 | 0.831 | 0.535 | 0.798 | 0.464 | 0.458 | 0.498 | 0.332
COc1nnc2ccc(N3CCC(c4ccc(OCCN5CCN(C)C(=O)[C@H]5C)cc4)CC3)nn12 [AZD5153] + CCN(CCO)CCCOc1ccc2c(Nc3cc(CC(=O)Nc4cccc(F)c4)[nH]n3)ncnc2c1 [AZD2811] (first compound max 1 µM, 7x7, partner max 1 µM) | 0.847 | 0.579 | 0.292 | 0.592 | 0.597 | 0.418 | 0.782 | 0.486 | 0.82 | 0.487 | 0.88 | 0.585 | 0.631 | 0.826 | 0.562 | 0.501 | 0.579 | 0.494 | 0.616 | 0.358
COc1nnc2ccc(N3CCC(c4ccc(OCCN5CCN(C)C(=O)[C@H]5C)cc4)CC3)nn12 [AZD5153] + C[C@@H]1COCCN1C2=NC(=NC(=C2)C3(CC3)[S@](=N)(=O)C)C4=C5C=CNC5=NC=C4 [AZD6738] (first compound max 1 µM, 7x7, partner max 10 µM) | 0.985 | 0.799 | 0.528 | 0.878 | 0.894 | 0.629 | 0.997 | 0.546 | 0.859 | 0.545 | 0.919 | 0.663 | 0.664 | 0.954 | 0.928 | 0.728 | 0.775 | 0.734 | 0.834 | 0.481
COc1nnc2ccc(N3CCC(c4ccc(OCCN5CCN(C)C(=O)[C@H]5C)cc4)CC3)nn12 [AZD5153] + Cc1c2c(nn1C)CSCc1cc(n(C)n1)CSc1cc(c3ccccc3c1)OCCCc1c(C(=O)O)n(C)c3c-2c(Cl)ccc13 [AZD5991] (first compound max 1 µM, 7x7, partner max 1 µM) | 0.978 | 0.566 | 0.199 | 0.815 | 0.86 | 0.473 | 0.837 | 0.502 | 0.987 | 0.442 | 0.993 | 0.667 | 0.602 | 1 | 0.537 | 0.808 | 0.519 | 0.623 | 0.685 | 0.494
COc1nnc2ccc(N3CCC(c4ccc(OCCN5CCN(C)C(=O)[C@H]5C)cc4)CC3)nn12 [AZD5153] + Cn1cnc2c(F)c(Nc3ccc(Br)cc3Cl)c(C(=O)NOCCO)cc21 [Selumetinib] (first compound max 1 µM, 7x7, partner max 10 µM) | 0.996 | 0.481 | 0.423 | 0.699 | 0.706 | 0.362 | 0.777 | 0.732 | 0.796 | 0.548 | 0.859 | 0.546 | 0.668 | 0.929 | 0.634 | 0.602 | 0.649 | 0.789 | 0.444 | 0.429
Cc1c2c(nn1C)CSCc1cc(n(C)n1)CSc1cc(c3ccccc3c1)OCCCc1c(C(=O)O)n(C)c3c-2c(Cl)ccc13 [AZD5991] + C=CCn1c(=O)c2cnc(Nc3ccc(N4CCN(C)CC4)cc3)nc2n1-c1cccc(C(C)(C)O)n1 [AZD1775] (first compound max 1 µM, partner max 1 µM) | 0.992 | 0.6 | 0.507 | 0.879 | 0.928 | 0.605 | 0.55 | 0.649 | 0.626 | 0.512 | 0.711 | 0.411 | 0.705 | 0.851 | 0.938 | 0.806 | 0.78 | 0.586 | 0.402 | 0.763

Reference: the supplement of paper PMC11061612
